Read-outs that look alike come from different tables or passages of the source.
Key:
[1] = biological target: T1, recombinantly produced, refolded SMT protein (Arabidopsis thaliana, UniProt Q8RUW5, A20T/S19M); type: biochemical; details: for acceptance as acyl acceptor with sinapoylglucose or PHBA 1-O-acylglucoside: 200 ng SMT, 500 μM glucose ester, 400 mM alcohol, pH 6.2, 30° C. for 16 h
T1 construct: consisting primarily of recombinant mature Arabidopsis SMT and some minor protein contaminants; initiator Met (start codon added in place of the signal peptide) (N); made in house
Protocol: Sinapoyl glucose was purified from the sng1 mutant of Arabidopsis as described by Lorenzen et al. (Plant Physiology 112:1625-1630 (1996)). The SMT assay contained 12.5 μL of 0.5 mM sinapoyl glucose in 100 mM potassium phosphate buffer (pH 7.5), 5 μL of 100 mM potassium phosphate buffer (pH 6.0), 5 μL of 1 M malic acid in potassium phosphate buffer (pH 6.0) and 5 μL of E. coli extract corresponding to 100 μg of protein. Assays were incubated for 14 h at 30° C., stopped by addition of 30 μL of methanol and stored at −70° C. before analysis by HPLC. Enzyme assays were analyzed by HPLC on a Nova-Pak® Pak® C18 column (60 Å pore size, […] particle size) using a gradient from 6% acetonitrile, 1.5% phosphoric acid to 48% acetonitrile, followed by 1.5% phosphoric acid and UV detection at 335 nm.
Approximately 250 ng of recombinantly produced, refolded SMT protein was incubated with 200 mM malate, 0.1 mM PHBA 1-O-acyl glucoside in a 25 μL reaction in 100 mM potassium phosphate buffer (pH 6.2) for 12 h at 30° C. Reaction products were separated by HPLC as described in the General Methods. […] The compound was analyzed by LC-MS as described in the General Methods.
The activity of the SMT enzyme was determined using sinapoyl glucose and L-lactate as follows. 1 μg of partially purified recombinant SMT protein was incubated with 500 μM sinapoyl glucose in 100 mM potassium phosphate buffer (pH 6.2) in the absence or presence of 200 mM L-lactate. Enzyme reactions were incubated at 30° C. for 12 h. Reaction products were analyzed by HPLC as described in the General Methods.
Activity of the SMT enzyme was determined using sinapoylglucose or PHBA 1-O-acylglucoside and methanol, ethanol and isopropanol. Briefly, 200 ng of partially purified recombinantly produced SMT protein was incubated with 500 μM of the glucose ester of sinapic acid or PHBA in 100 mM potassium phosphate buffer (pH 6.2) in the absence or presence of 400 mM of the respective alcohols in 100 μL enzyme reactions. Enzyme reactions were incubated at 30° C. for 16 h. All reaction products were analyzed by HPLC as described in Example 1.

[2] = test system: O=C(O)CC(O)C(=O)O; experiment: purified protein, by the assay type; details: other: 30° C., 500 μM sinapoyl glucose, 100 mM potassium phosphate buffer (pH 6.8), 50 ng partially purified SMT, Hofstee plot
[3] = biological target: SMT (sinapoylglucose:malate sinapoyltransferase) (Arabidopsis thaliana, UniProt Q8RUW5, A20T/S19M)
Protocol: Sinapoyl glucose was purified from the sng1 mutant of Arabidopsis as described by Lorenzen et al. (Plant Physiology 112:1625-1630 (1996)). […] Assays were incubated for 14 h at 30° C., stopped by addition of 30 μL of methanol and stored at −70° C. before analysis by HPLC. Enzyme assays were analyzed by HPLC on a Nova-Pak® Pak® C18 column (60 Å pore size, […] particle size) using a gradient from 6% acetonitrile, 1.5% phosphoric acid to 48% acetonitrile, followed by 1.5% phosphoric acid and UV detection at 335 nm.

[4] = biological target: T2, sinapoyl glucose and L-malate (SMT reaction) (Arabidopsis thaliana, UniProt Q8RUW5, A20T/S19M); experiment: Turnover number of purified recombinant SMT folded from inclusion bodies; type: biochemical; details: 30° C., 100 mM potassium phosphate buffer (pH 6.2), 500 μM sinapoyl glucose, 200 mM L-malate
T2 construct: consisting primarily of recombinant mature Arabidopsis SMT and some minor protein contaminants; initiator Met (start codon added in place of the signal peptide) (N); made in house
Protocol: As judged by SDS-PAGE and Coomassie-blue staining, the folded recombinant protein was at least 80% pure and the final yield of active SMT from the 100 mL folding reaction was ˜6 μg, corresponding to ˜0.52% of the original inclusion body material. The turnover number for purified recombinant SMT folded from inclusion bodies was ˜18/sec at 30° C., which compares favorably to the 11.5/sec value that was previously reported for the authentic protein purified from radish (Graewe et al., Planta 187:236-241 (1992)). For this determination the 25 μL enzyme reaction contained 100 mM potassium phosphate buffer (pH 6.2), 500 μM sinapoyl glucose and 200 mM L-malate.

CCO [ethanol]
acceptance as acyl acceptor with sinapoylglucose or PHBA 1-O-acylglucoside [1]: production of methyl, ethyl and isopropyl esters of sinapic acid and PHBA

SMT (sinapoylglucose:malate sinapoyltransferase) (Arabidopsis thaliana; A20T/S19M)
Km [2]: 42000 µM

CC(C)O [isopropanol]
acceptance as acyl acceptor with sinapoylglucose or PHBA 1-O-acylglucoside [1]: production of methyl, ethyl and isopropyl esters of sinapic acid and PHBA

O=C(O[C@@H]1O[C@H](CO)[C@@H](O)[C@H](O)[C@H]1O)c1ccc(O)cc1 [PHBA 1-O-acyl glucoside]
Vmax of SMT for PHBA 1-O-acyl glucoside ([3]; 30° C., 200 mM malate, 500 ng partially purified SMT, y-intercept of regression curve): 0.2482 μmol min^−1 mg^−1 protein
Km ([3]; read-out: Km of SMT for PHBA 1-O-acyl glucoside, 30° C., 200 mM malate, 100 mM potassium phosphate buffer (pH 6.8), 500 ng partially purified SMT, PHBA malate synthesis, Hofstee plot): ~354 µM
conversion by SMT in the presence of malate ([1]; 250 ng SMT, 200 mM malate, 0.1 mM PHBA 1-O-acyl glucoside, pH 6.2, 12 h at 30° C., product m/z agrees with PHBA malate): converted to a new compound

CO [methanol]
acceptance as acyl acceptor with sinapoylglucose or PHBA 1-O-acylglucoside [1]: production of methyl, ethyl and isopropyl esters of sinapic acid and PHBA

C[C@H](O)C(=O)O [L-lactate]
acceptance as acyl acceptor with sinapoyl glucose ([1]; 1 μg SMT, 500 μM sinapoyl glucose, 200 mM L-lactate, pH 6.2, 30° C. for 12 h, product m/z agrees with sinapoyl lactate): a new compound that absorbs at 335 nm is produced

COc1cc(/C=C/C(=O)O[C@@H]2O[C@H](CO)[C@@H](O)[C@H](O)[C@H]2O)cc(OC)c1O [sinapoyl glucose]
Vmax of SMT for sinapoyl glucose ([3]; 30° C., 200 mM malate, 50 ng partially purified SMT, y-intercept of regression curve): 21.315 μmol min^−1 mg^−1 protein
Km ([3]; read-out: Km of SMT for sinapoyl glucose, pH 6.8): ~541 µM

B1: purified recombinant SMT: recombinant mature Arabidopsis sinapoylglucose:malate sinapoyltransferase (SEQ ID NO:7) folded from E. coli inclusion bodies (protein)
chain: MTSIVKFLPGFEGPLPFELETGYIGIGEDENVQFFYYFIKSENNPKEDPLLIWLNGGPGCSCLGGIIFENGPVGLKFEVFNGSAPSLFSTTYSWTKMANIIFLDQPVGSGFSYSKTPIDKTGDISEVKRTHEFLQKWLSRHPQYFSNPLYVVGDSYSGMIVPALVQEISQGNYICCEPPINLQGYMLGNPVTYMDFEQNFRIPYAYGMGLISDEIYEPMKRICNGNYYNVDPSNTQCLKLTEEYHKCTAKINIHHILTPDCDVTNVTSPDCYYYPYHLIECWANDESVREALHIEKGSKGKWARCNRTIPYNHDIVSSIPYHMNNSISGYRSLIYSGDHDIAVPFLATQAWIRSLNYSPIHNWRPWMINNQIAGYTRAYSNKMTFATIKGGGHTAEYRPNETFIMFQRWISGQPL
turnover number [4]: ~18 s⁻¹

— patent US6642036B2, “Sinapoylglucose:malate sinapoyltransferase form malate conjugates from benozic acid glucosides” (E. I. Du Pont de Nemours and Company, priority 2000, dated 2003)
